Assay results published in paper PMC7504751, “Potential of 2-Chloro-N-(4-fluoro-3-nitrophenyl)acetamide Against Klebsiella pneumoniae and In Vitro Toxicity Analysis” (Molecules, 2020).
In brackets after ≈: the same amount, converted by molar mass. Entries after “also recorded” stand apart in the source; their conditions may differ. Read-outs that look alike come from different tables or passages of the source. Each block holds one compound with its values, some of them ahead of it.

Tests used:
[1] = system: K. pneumoniae strains; test: Minimum inhibitory concentration (MIC), broth microdilution; type: cell-based, Klebsiella pneumoniae
Description: The clinical isolates strains of K. pneumoniae were used in this study belong to the MICOTECA of the Antibacterial and Antifungal Activity Research Laboratory of the Federal University of Paraíba, Brazil, which are: KP-25, KP-26, KP-56, KP-83, KP-87, KP-138, KP-143, KP-166, KP-173, KP-176, KP-260, and KP-326. The American Type Culture Collection strain ATCC-700603 was used as controls. For use in the assays, bacterial suspensions were prepared in 0.9% saline solution, from fresh cultures, and adjusted to the McFarland standard 0.5 scale.
To assess the antibacterial activity of substances A1 and A2, the minimum inhibitory concentration against K. pneumoniae strains was determined. The substances were solubilized in dimethyl sulfoxide (DMSO) at 5% and Tween-80 at 2%, to obtain emulsions in the concentrations necessary for use in the tests. The MIC determination was performed using the broth microdilution technique in a 96-well plate to obtain different concentrations of A1 and A2 [35]. In parallel, controls for sterility, cell viability, and interference of the vehicles used in the preparation of substance emulsions (DMSO and Tween-80) were also performed. MIC is defined as the lowest concentration capable of causing complete inhibition of bacterial growth after 24 h at 35 ± 2 °C.

[2] = system: Candida albicans; set-up: method as in doi:10.4067/S0717-97072003000400005; details: cited from earlier work
[3] = system: oral mucosa cells; test: Genotoxic effects on oral mucosa cells; type: cell-based, human; details: positive control, hydrogen peroxide 0.0005%
Description: The tests were performed according to the recommendations established by the Code of Ethics of the World Medical Association, after approval by the ethics committee of the Centro Universitário de Patos (number: 3621284). Blood samples (types A, B, and O) and smears of oral mucosa were donated by young, healthy adults. First, the oral mucosa cells were collected from the donors, which was done with a cyto-brush (smear collector) in the cheek area, and the material obtained was placed in 5 mL of 0.9% NaCl. As controls, cells treated with hydrogen peroxide −0.0005% (positive control) and untreated cells (negative control) were used. The cells were washed twice with saline and centrifuged for 10 min at 400× g and kept in saline. After the third wash, the cells were exposed (ex vivo) to A2 substance at 50, 100, 500, and 1000 µg/mL concentrations for 30 min. The material was centrifuged and the supernatant was discarded before smear preparation. The cells were homogenized in a vortex and placed on the slides at room temperature for drying for 15 min. Then, they were fixed with methanol: acetic acid (3:1) for 15 min and stained with 2% Giemsa.

MIC ([1]; Klebsiella pneumoniae, ATCC700603, strain ATCC-700603, 24 h at 35 ± 2 °C, read-out: MIC): 1020 µg/mL (≈ 5.17 mM)
MIC ([1]; Klebsiella pneumoniae, 100% of the K. pneumoniae strains used in this study, read-out: MIC): 1020 µg/mL (≈ 5.17 mM)
MIC ([1]; Klebsiella pneumoniae, strain KP-138, 24 h at 35 ± 2 °C, read-out: MIC): 1020 µg/mL (≈ 5.17 mM)
MIC ([1]; strain KP-25, 24 h at 35 ± 2 °C): 1024 µg/mL (≈ 5.17 mM)
MIC ([1]; strain KP-26, 24 h at 35 ± 2 °C): 1024 µg/mL (≈ 5.17 mM)
MIC ([1]; strain KP-56, 24 h at 35 ± 2 °C): 1024 µg/mL (≈ 5.17 mM)
MIC ([1]; strain KP-83, 24 h at 35 ± 2 °C): 1024 µg/mL (≈ 5.17 mM)
MIC ([1]; strain KP-87, 24 h at 35 ± 2 °C): 1024 µg/mL (≈ 5.17 mM)
MIC ([1]; strain KP-143, 24 h at 35 ± 2 °C): 1024 µg/mL (≈ 5.17 mM)
MIC ([1]; strain KP-166, 24 h at 35 ± 2 °C): 1024 µg/mL (≈ 5.17 mM)
MIC ([1]; strain KP-173, 24 h at 35 ± 2 °C): 1024 µg/mL (≈ 5.17 mM)
MIC ([1]; strain KP-176, 24 h at 35 ± 2 °C): 1024 µg/mL (≈ 5.17 mM)
MIC ([1]; strain KP-260, 24 h at 35 ± 2 °C): 1024 µg/mL (≈ 5.17 mM)
MIC ([1]; strain KP-326, 24 h at 35 ± 2 °C): 1024 µg/mL (≈ 5.17 mM)
melting point: 142 to 144 °C
SMILES: CC(=O)Nc1ccc(F)c([N+](=O)[O-])c1 [A1, N-(4-fluoro-3-nitrophenyl)acetamide]

SMILES: O=C(CCl)Nc1ccccc1O [2-chloro-N-(2-hydroxyphenyl) acetamide]
C. albicans strains inhibited [2]: 96.6%

SMILES: CC(=O)Nc1ccccc1O [N-(2-hydroxyphenyl) acetamide]
antimicrobial activity against Candida albicans [2]: did not have the ability to inhibit fungal growth; also recorded: absence of activity

SMILES: OO [PC-H2O2, hydrogen peroxide, reference compound]
Binucleation [3]: 1.00%
Karyolysis [3]: 7.00%
Karyorrhexis [3]: 10.75%
Micronucleus [3]: 6.50%
Normal [3]: 77.75%
